# Reference: patent US20050187141A1, “Control of gene induced by oxidated lipids in human artery wall cells” (The Regents of the University of California, priority 2000, published 2005)
# Key:
# fatty streak lesions = experiment: Fatty streak lesions in apo E deficient mice; type: in vivo; details: 1.0 mg/ml in drinking water, 5 weeks, FIG. 9
# Method: Apo E deficient mice were purchased from Jackson Laboratories (Bar Harbor, Me.). The mice were 5 weeks old at the time of the experiments. The animals were maintained on a chow diet containing 4% fat, obtained from Ralston-Purina (St. Louis, Mo.). One group (n=10) was given in their drinking water 1.0 mg/ml of 1,2-dimyristoyl-sn-glycero-3-phosphocholine (1,2-ditetradecanoyl-sn-glycero-3-phosphocholine) (shown as DGP on the figure, approximately 99% pure, catalog # P 7331, Sigma Chemical Company, St. Louis, Mo.). […] After 5 weeks of treatment, the animals were sacrificed and hearts were harvested and processed according to the methods described by Qiao et al. (1994) Arterioscl Thromb, 14: 1480-1497). In brief, 10 μm thick cryosections were stained with Oil red 0 and hematoxylin and counterstained with fast green and examined by light microscopy for the identification of atheromatous lesions. Lesion size was measured using a 1.0 cm optical grid with 20×20 grid lines. Under 10× magnification, each square corresponded to 1/400 mm^2 (or 2500 μm^2). A square with lipophilic stain was counted as lesion if the visually observed stain covered at least 1/8th of the square.
# paraoxonase-1 (PON1) = experiment: Paraoxonase activity of plasma fractions of apo E deficient mice; type: in vivo; details: 2.0 mg/ml in drinking water, FIG. 7
# Method: Plasma fractions obtained as described in above were analyzed for paraoxonase activity using paraoxon a substrate as reported by Watson et al. (1995) J Clin Invest., 96: 2882-2891). The control samples are shown as diamonds in the figure.
# [1] = test system: Human artery wall cell cocultures; experiment: HDL protective capacity and LDL susceptibility to oxidation in human artery wall cell cocultures; type: in vivo, apo E deficient mice; details: 18 hrs, FIG. 8
# Method: Plasma fractions obtained as described above were pooled in the region containing LDL and the region containing HDL. Human artery wall cell cocultures were prepared as reported previously (Navab et al. (1997) J Clin Invest., 99: 2005-2019) and used to determine the extent of LDL oxidation as judged by the level of monocyte chemotactic activity generated by oxidized LDL. As the assay controls, to some wells containing the artery wall cocultures was added a standard human LDL (h LDL) at 200 μg LDL protein per ml. To other wells was added h LDL+human HDL (h HDL) at 350 μg HDL protein per ml. The protective capacity of HDL obtained from apo E deficient mice was then tested. To some wells was added standard human LDL (Std. h LDL) at 200 μg LDL protein per ml plus 50 μg of HDL cholesterol obtained from the mice that had received drinking water without additions (Std. h LDL+Cont. E null HDL). To other wells in addition to human LDL, HDL (at 50 μg cholesterol/ml) obtained from mice given drinking water containing 2.0 mg per ml of 1,2-dimyristoyl-sn-glycero-3-phosphocholine (1,2-ditetradecanoyl-sn-glycero-3-phosphocholine) (Std. h LDL+DGP HDL) was added and incubated for 18 hrs. LDL susceptibility to oxidation was additionally determined. […] The values are mean±SD of the number of monocytes counted in 9 high power fields from quadruple wells. […]
# lesions = experiment: Lesion regression in 10 month old apo E deficient mice; type: in vivo; details: 1.0 mg/ml in drinking water for five weeks after 10 months on chow, FIG. 10
# Method: Apo E deficient mice were purchased from Jackson Laboratories (Bar Harbor, Me.). The mice were maintained on a chow diet containing 4% fat, obtained from Ralston-Purina (St. Louis, Mo.) for 10 months at which time one group (n=5) were sacrificed and lesions determined. A second group (n=8) received 1.0 mg/ml of synthetic 1,2-ditetradecanoyl-sn-glycero-3-phosphorylcholine (DGP, approximately 99% pure, catalog # P 7331, Sigma Chemical Company, St. Louis, Mo.) in their drinking water for another five weeks. […] After 5 weeks of treatment, the animals were sacrificed. The hearts and blood vessels from the three groups were harvested and processed as previously reported (Qiao 1994) to determine lesion area.
# [2] = Lipoprotein cholesterol levels (FPLC) in apo E deficient mice; type: in vivo; details: 2.0 mg/ml in drinking water, 24 and 48 hrs, FIG. 6
# Method: Apo E deficient mice were purchased from Jackson Laboratories (Bar Harbor, Me.). The mice were 5 weeks old at the time of the experiments. The animals were maintained on a chow diet containing 4% fat, obtained from Ralston-Purina (St. Louis, Mo.). Synthetic 1,2-ditetradecanoyl-sn-glycero-3-phosphocholine (shown in the figure as circles at 24 h and as triangles at 48 h and abbreviated as DGP; 99+% purity, catalog # P 2663, Lot # 17H8362, Sigma Chemical Company, St. Louis Mo.) was added at 2.0 mg/ml to the drinking water of one group of apo E deficient mice (n=5). […] After 24 and 48 hrs blood was collected from the retroorbital sinus under mild anesthesia into heparinized tubes under an approved protocol of the UCLA Animal Research Committee. Plasma was separated and was fractionated using fast protein liquid chromatography (FPLC). Cholesterol content of the fractions was determined using a kit (Infinity reagent) obtained from Sigma Chemical Company.
# [3] = test system: human aortic endothelial cells; experiment: Monocyte chemotactic activity of supernatants of Ox-PAPC treated HAECs; type: cell-based; details: oligonucleotide 100 nM, 18 h, then Ox-PAPC 50 μg/ml 4 h, FIG. 5A-5C
# Method: Human aortic endothelial cells were transfected with either ‘antisense’ or ‘sense’ phosphorothioate oligonucleotides (100 nM) to human MKP-1. Eighteen hours later, control and transfected cells were either left untreated or treated with Ox-PAPC (50 μg/ml) for an additional four hours. Following the treatments, cell supernatants were collected and analyzed for monocyte chemotactic activity.
# [4] = test system: human aortic endothelial cells; experiment: Monocyte adhesion assay with supernatants of Ox-PAPC treated HAECs; type: cell-based; details: oligonucleotide 100 nM, 18 h, then Ox-PAPC 50 μg/ml 4 h, FIG. 4
# Method: Human aortic endothelial cells were transfected with either ‘antisense’ or ‘sense’ phosphorothioate oligonucleotides (100 nM) to human MKP-1. Eighteen hours later, control and transfected cells were either left untreated or treated with Ox-PAPC (50 μg/ml) for an additional four hours. Following the treatments, cell supernatants were collected and analyzed in a monocyte adhesion assay.
# human MKP-1 = experiment: Western blot of MKP-1 protein in Ox-PAPC treated HAECs after oligonucleotide transfection; type: cell-based; details: oligonucleotide 100 nM, 18 h, then Ox-PAPC 50 μg/ml 4 h, FIG. 3A, 3B
# Method: HAECs were transfected with either ‘antisense’ or ‘sense’ phosphorothioate oligonucleotides (100 nM) to human MKP-1. Eighteen hours later, control and transfected cells were either left untreated or treated with Ox-PAPC (50 μg/ml) for an additional four hours.
# influenza A = details: injected, mice; cited from earlier work
compound,measurement,setting,value
"CCCCCCCCCCCCCC(=O)OC[C@H](COP(=O)([O-])OCC[N+](C)(C)C)OC(=O)CCCCCCCCCCCCC [1,2-dimyristoyl-sn-glycero-3-phosphocholine]",reduction in atherosclerosis,fatty streak lesions,84.1%
same,content of paraoxonase-1 (PON1) associated with HDL,paraoxonase-1 (PON1),dramatic increase
same,HDL protective capacity (protecting LDL against oxidation),"[1]; HDL from mice given 2.0 mg per ml in drinking water, 50 μg cholesterol/ml",more effective in protecting LDL against oxidation
same,LDL susceptibility to oxidation,"[1]; LDL from mice given 2.0 mg per ml in drinking water, 100 μg LDL cholesterol per ml",more resistant to oxidation by artery walls
same,lesion area change,lesions,dramatic lesion regression
same,high density lipoprotein (HDL) levels,[2],dramatic increase
same,very low density lipoproteins (VLDL) or low density lipoproteins (LDL),[2],without a significant change
"antisense oligonucleotides: antisense phosphorothioate oligonucleotide to human MKP-1; 5′-GGAACTCAGTGGAACTCAGG-3′ (SEQ ID NO:2) (antisense GGAACTCAGTGGAACTCAGG; all phosphorothioate, sugars by position and methylation of C not given here)",monocyte chemotactic activity / monocyte chemotaxis,[3],did not promote monocyte chemotaxis
same,Ox-PAPC induction of monocyte adherence,[4],did not promote monocyte adhesion
same,Ox-PAPC-induced MKP-1 protein expression,human MKP-1,prevent the accumulation of MKP-1 protein
"apo A-I: apo A-I, injected in mice with influenza A in a copending application",signs and symptoms of influenza A,influenza A,greatly ameliorated
